Source: patent US20230233690A1, “ANDROGEN RECEPTOR PROTEIN DEGRADERS” (THE REGENTS OF THE UNIVERSITY OF MICHIGAN, priority 2020, published 2023)

Biological target: T1, AR protein (Homo sapiens, UniProt P10275)
T1 construct: endogenous in cells; host or cells: VCaP
T1 sequence (P10275 1-920): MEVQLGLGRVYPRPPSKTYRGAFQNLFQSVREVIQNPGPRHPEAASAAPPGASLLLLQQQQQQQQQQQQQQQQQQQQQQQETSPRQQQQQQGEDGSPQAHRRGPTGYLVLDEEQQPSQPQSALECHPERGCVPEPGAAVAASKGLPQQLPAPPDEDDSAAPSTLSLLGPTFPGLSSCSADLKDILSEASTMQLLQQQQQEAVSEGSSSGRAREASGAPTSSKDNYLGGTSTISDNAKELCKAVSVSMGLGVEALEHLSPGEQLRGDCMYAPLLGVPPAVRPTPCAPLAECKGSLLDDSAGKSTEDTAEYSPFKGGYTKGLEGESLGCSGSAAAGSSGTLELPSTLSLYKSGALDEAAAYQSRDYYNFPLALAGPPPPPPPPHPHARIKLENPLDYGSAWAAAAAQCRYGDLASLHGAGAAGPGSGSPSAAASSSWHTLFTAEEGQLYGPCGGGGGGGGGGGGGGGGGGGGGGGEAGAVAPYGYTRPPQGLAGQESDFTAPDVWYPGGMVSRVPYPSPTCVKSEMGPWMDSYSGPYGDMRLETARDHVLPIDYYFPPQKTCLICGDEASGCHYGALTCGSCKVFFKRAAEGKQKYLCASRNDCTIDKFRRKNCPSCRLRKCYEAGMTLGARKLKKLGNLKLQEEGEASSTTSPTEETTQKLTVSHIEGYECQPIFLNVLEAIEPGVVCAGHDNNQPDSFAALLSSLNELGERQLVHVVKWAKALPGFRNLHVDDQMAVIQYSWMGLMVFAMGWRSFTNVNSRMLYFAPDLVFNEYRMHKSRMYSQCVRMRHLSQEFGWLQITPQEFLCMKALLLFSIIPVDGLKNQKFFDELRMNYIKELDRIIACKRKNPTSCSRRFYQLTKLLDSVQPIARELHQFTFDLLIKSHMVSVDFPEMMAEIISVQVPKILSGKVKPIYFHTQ
Assay: Western blotting of AR protein degradation in VCaP cells
Assay type: cell-based
Details: for AR protein degradation VCap 10 nM / AR protein degradation VCap 100 nM: 24 hr treatment
Procedure: The treated cells were lysed with RIPA buffer. […] GAPDH was used as a loading control.
Bands were quantified with ImageJ software. The relative numbers of each band obtained from normalization with its corresponding GAPDH level were compared with Prism 8 software. The DC50 values were produced from Prism 8, and the DC90 values were calculated with an equation=Bottom+(Top−Bottom)/(1+10^((Log EC50−X)*HillSlope) based on DC50 and Hillslope values.

Structure (SMILES)	AR protein degradation VCap 10 nM	AR protein degradation VCap 100 nM	% AR protein degradation in VCaP Cells (0.001 μM)	% AR protein degradation in VCaP Cells (0.01 μM)	% AR protein degradation in VCaP Cells (0.1 μM)	% AR protein degradation in VCaP Cells (1 μM)
N#Cc1ccc(O[C@H]2CC[C@H](Nc3ccc(C(=O)N4CCN(CC5CCN(c6ccc7c(c6)C(=O)N(C6CCC(=O)NC6=O)C7=O)CC5)CC4)cc3)CC2)cc1Cl (stereo partly shown) [compound 13]	C (>10% degradation but <50% (24 hr treatment))	B (>50% degradation but <90% (24 hr treatment))	–	–	–	–
CN(c1ccc(C(=O)N2CCN(C3CCN(c4ccc5c(c4)C(=O)N(C4CCC(=O)NC4=O)C5=O)CC3)CC2)cc1)[C@H]1CC[C@H](Oc2ccc(C#N)c(Cl)c2)CC1 (stereo partly shown) [compound 14]	–	C (>10% degradation but <50% (24 hr treatment))	–	–	–	–
N#Cc1ccc(O[C@H]2CC[C@H](NC(=O)c3ccc(N4CCN(CCCNc5ccc6c(c5)C(=O)N(C5CCC(=O)NC5=O)C6=O)CC4)cc3)CC2)cc1Cl (stereo partly shown) [compound 219, N-((1r,4r)-4-(3-chloro-4-cyanophenoxy)cyclohexyl)-4-(4-(3-((2-(2,6-dioxopiperidin-3-yl)-1,3-dioxoisoindolin-5-yl)amino)propyl)piperazin-1-yl)benzamide]	–	–	18%	69%	80%	59%
C[C@H]1C[C@@H](NC(=O)c2ccc(N3CCN(C4CCN(c5ccc6c(c5)C(=O)N(C5CCC(=O)NC5=O)C6=O)CC4)CC3)cc2)CC[C@@H]1Oc1ccc(C#N)c(Cl)c1 (stereo partly shown) [compound 25]	A (>90% degradation (24 hr treatment))	A (>90% degradation (24 hr treatment))	–	–	–	–
N#Cc1ccc(O[C@H]2CCC[C@H](NC(=O)c3ccc(N4CCC(N5CCN(c6ccc7c(c6)C(=O)N(C6CCC(=O)NC6=O)C7=O)CC5)CC4)cc3)CCC2)cc1Cl (stereo partly shown) [compound 228, N-((1r,5r)-5-(3-chloro-4-cyanophenoxy)cyclooctyl)-4-(4-(4-(2-(2,6-dioxopiperidin-3-yl)-1,3-dioxoisoindolin-5-yl)piperazin-1-yl)piperidin-1-yl)benzamide]	–	–	12%	21%	51%	47%
N#Cc1ccc(N[C@H]2CC[C@H](NC(=O)c3ccc(N4CCN(CC5CCN(c6ccc7c(c6)C(=O)N(C6CCC(=O)NC6=O)C7=O)CC5)CC4)cc3)CC2)cc1Cl (stereo partly shown) [compound 27]	A (>90% degradation (24 hr treatment))	A (>90% degradation (24 hr treatment))	–	–	–	–
CN(c1ccc(C#N)c(Cl)c1)C1CCC(NC(=O)c2ccc(C#CC3CCN(C4CCN(c5ccc6c(c5)C(=O)N(C5CCC(=O)NC5=O)C6=O)CC4)CC3)cc2)CC1 (stereo not shown) [compound 32]	A (>90% degradation (24 hr treatment))	A (>90% degradation (24 hr treatment))	–	–	–	–
N#Cc1ccc(O[C@H]2CC[C@H](NC(=O)c3ccc(NCCCCCNc4ccc5c(c4)C(=O)N(C4CCC(=O)NC4=O)C5=O)cc3)CC2)cc1Cl (stereo partly shown) [compound 211, N-((1r,4r)-4-(3-chloro-4-cyanophenoxy)cyclohexyl)-4-((5-((2-(2,6-dioxopiperidin-3-yl)-1,3-dioxoisoindolin-5-yl)amino)pentyl)amino)benzamide]	–	–	59%	82%	82%	79%
N#Cc1ccc(O[C@H]2CC[C@H](Nc3ccc(C(=O)N4CCN(C5CN(c6ccc7c(c6)C(=O)N(C6CCC(=O)NC6=O)C7=O)C5)CC4)cc3)CC2)cc1Cl (stereo partly shown) [Cpd. No. 17, 2-chloro-4-(((1r,4r)-4-((4-(4-(1-(2-(2,6-dioxopiperidin-3-yl)-1,3-dioxoisoindolin-5-yl)azetidin-3-yl)piperazinecarbonyl)phenyl)amino)cyclohexyl)oxy)benzonitrile]	B (>50% degradation but <90% (24 hr treatment))	B (>50% degradation but <90% (24 hr treatment))	–	–	–	–
N#Cc1ccc(O[C@H]2CC[C@H](NC(=O)c3ccc(N4CCC5(CC4)CCN(C4CCN(c6ccc7c(c6)C(=O)N(C6CCC(=O)NC6=O)C7=O)CC4)CC5)cc3)CC2)cc1Cl (stereo partly shown) [compound 7]	B (>50% degradation but <90% (24 hr treatment))	C (>10% degradation but <50% (24 hr treatment))	–	–	–	–
N#Cc1ccc(O[C@H]2CC[C@H](NC(=O)c3ccc(N4CCN(C5CCN(c6ccc7c(c6)C(=O)N(C6CCC(=O)NC6=O)C7=O)CC5)CC4)cc3)CC2)cc1Cl (stereo partly shown) [Cpd. No. 21, N-((1r,4r)-4-(3-chloro-4-cyanophenoxy)cyclohexyl)-4-(4-(1-(2-(2,6-dioxopiperidin-3-yl)-1,3-dioxoisoindolin-5-yl)piperidin-4-yl)piperazin-1-yl)benzamide]	A (>90% degradation (24 hr treatment))	A (>90% degradation (24 hr treatment))	–	–	–	–
CN(c1ccc(C#N)c(Cl)c1)[C@H]1CC[C@H](NC(=O)c2ccc(N3CCN(CC4CCN(c5ccc6c(c5)C(=O)N(C5CCC(=O)NC5=O)C6=O)CC4)CC3)cc2)CC1 (stereo partly shown) [compound 29]	A (>90% degradation (24 hr treatment))	A (>90% degradation (24 hr treatment))	–	–	–	–
N#Cc1ccc(O[C@H]2CC[C@H](NC(=O)c3ccc4c(c3)CN(CC3CCN(c5ccc6c(c5)C(=O)N(C5CCC(=O)NC5=O)C6=O)CC3)C4)CC2)cc1Cl (stereo partly shown) [compound 8]	–	A (>90% degradation (24 hr treatment))	–	–	–	–
C[C@H]1C[C@@H](NC(=O)c2ccc(N3CCN(C4CN(c5ccc6c(c5)C(=O)N(C5CCC(=O)NC5=O)C6=O)C4)CC3)cc2)CC[C@@H]1Oc1ccc(C#N)c(Cl)c1 (stereo partly shown) [compound 26]	A (>90% degradation (24 hr treatment))	A (>90% degradation (24 hr treatment))	–	–	–	–
N#Cc1ccc(O[C@H]2CC[C@H](NC(=O)c3ccc(N4CCN(C5CN(c6ccc7c(c6)C(=O)N(C6CCC(=O)NC6=O)C7=O)C5)CC4)cc3)CC2)cc1Cl (stereo partly shown) [Cpd. No. 22]	A (>90% degradation (24 hr treatment))	A (>90% degradation (24 hr treatment))	–	–	–	–
N#Cc1ccc(O[C@H]2CC[C@H](NC(=O)c3ccc(N4CCN(CCCCNc5ccc6c(c5)C(=O)N(C5CCC(=O)NC5=O)C6=O)CC4)cc3)CC2)cc1Cl (stereo partly shown) [compound 220, N-((1r,4r)-4-(3-chloro-4-cyanophenoxy)cyclohexyl)-4-(4-(4-((2-(2,6-dioxopiperidin-3-yl)-1,3-dioxoisoindolin-5-yl)amino)butyl)piperazin-1-yl)benzamide]	–	–	18%	60%	80%	62%
CN(c1ccc(C(=O)N2CCN(CC3CCN(c4ccc5c(c4)C(=O)N(C4CCC(=O)NC4=O)C5=O)CC3)CC2)cc1)[C@H]1CC[C@H](Oc2ccc(C#N)c(Cl)c2)CC1 (stereo partly shown) [compound 15]	–	B (>50% degradation but <90% (24 hr treatment))	–	–	–	–
N#Cc1ccc(O[C@H]2CC[C@H](NC(=O)c3ccc(NCCCCCCCCCCCNc4ccc5c(c4)C(=O)N(C4CCC(=O)NC4=O)C5=O)cc3)CC2)cc1Cl (stereo partly shown) [compound 217, N-((1r,4r)-4-(3-chloro-4-cyanophenoxy)cyclohexyl)-4-((11-((2-(2,6-dioxopiperidin-3-yl)-1,3-dioxoisoindolin-5-yl)amino)undecyl)amino)benzamide]	–	–	7%	17%	39%	35%
